From paper PMC3687523 (Biochemical pharmacology, 2013)

Assays:
[1] = system: rat brain CYP2D
[2] = system: rat brain CYP2D; details: 20 μg i.c.v. propranolol
[3] = 20 μg i.c.v. propranolol, 30 mg/kg s.c. codeine
[4] = 30 min after 30 mg/kg s.c. codeine

SMILES: CC(C)NCC(O)COc1cccc2ccccc12 (centres unmarked) [propranolol]
- percentage of maximal analgesic effect (%MPE) after codeine, compared to vehicle pretreatment ([1]; 20 μg i.c.v. propranolol 24 h before 30 mg/kg s.c. codeine, at 15, 20, 30 and 40 min): significantly lower
- area under the analgesia-time curve (AUC) 0-30 min after codeine, compared to vehicle pretreatment [1, 3]: significantly lower
- area under the analgesia-time curve (AUC) 60-120 min after codeine, compared to vehicle pretreatment [1, 3]: Neither inhibitor resulted in lower AUC
- AUC of analgesia after morphine, compared to vehicle pretreatment ([1]; 40 μg i.c.v. propranolol, 5 mg/kg s.c. morphine, all time periods): did not result in significantly different
- %MPE after morphine, compared to vehicle pretreatment ([1]; 40 μg i.c.v. propranolol, 5 mg/kg s.c. morphine, all time points): did not result in significantly different %MPE
- brain morphine concentration, compared to vehicle-pretreated rats [2, 4]: significantly lower
- plasma morphine concentration, compared to vehicle-pretreated rats [2, 4]: equal
- brain morphine concentrations, propranolol- vs vehicle-pretreated rats ([2]; at both 60 and 90 min after 30 mg/kg s.c. codeine): no significant difference
